# Assay results as given in ChEMBL document CHEMBL3046399, “Microwave assisted synthesis of novel pyrimidine derivatives and investigation of their analgesic and ulcerogenic activity” (Med Chem Res, 2012).
# What was measured:
# Mus musculus [1] = test: Analgesic activity in Mus musculus Swiss albino (mouse) assessed as protection against acetic acid-induced writhing response at 20 mg/kg, po administered 30 min prior to acetic acid challenge measured at 2 hr relative to control; assay type: functional
# Mus musculus [2] = test: Analgesic activity in Mus musculus Swiss albino (mouse) assessed as protection against acetic acid-induced writhing response at 20 mg/kg, po administered 30 min prior to acetic acid challenge measured at 0.5 hr relative to control; assay type: functional
# Mus musculus [3] = test: Analgesic activity in Mus musculus Swiss albino (mouse) assessed as protection against acetic acid-induced writhing response at 20 mg/kg, po administered 30 min prior to acetic acid challenge measured at 1 hr relative to control; assay type: functional
# Mus musculus [4] = test: Ulcerogenic activity in Mus musculus Swiss albino (mouse) stomach assessed as decrease in ulcer spots at 60 mg/kg, po after 17 hr by hematoxylin-eosin staining relative to vehicle-treated control; assay type: toxicity, organism-based; design: dose 60 mg/kg, route oral; conditions: in vivo
SMILES,Activity (Mus musculus [1]),Activity (Mus musculus [2]),Activity (Mus musculus [3]),Activity (Mus musculus [4])
COc1ccccc1-c1cc(-c2cc3cc(Br)ccc3oc2=O)nc(NCN2CCOCC2)n1,37.61%,41.97%,36.13%,
COc1cccc(-c2cc(-c3cc4cc(Br)ccc4oc3=O)nc(NCN3CCOCC3)n2)c1,47.42%,60.62%,53.41%,
O=c1oc2ccc(Br)cc2cc1-c1cc(-c2ccc(Cl)cc2Cl)nc(NCN2CCOCC2)n1,69.6%,95.34%,85.36%,Non-toxic
O=c1oc2ccc(Br)cc2cc1-c1cc(-c2c(Cl)cccc2Cl)nc(NCN2CCOCC2)n1,75.26%,95.34%,87.96%,
O=c1oc2ccc(Br)cc2cc1-c1cc(-c2cccc(Cl)c2)nc(NCN2CCCCC2)n1,51.53%,81.87%,83.25%,
O=c1oc2ccc(Br)cc2cc1-c1cc(-c2ccc(Cl)cc2)nc(NCN2CCCCC2)n1,61.86%,83.94%,77.47%,
O=c1oc2ccc(Br)cc2cc1-c1cc(-c2ccccc2Br)nc(NCN2CCCCC2)n1,15.47%,55.96%,40.31%,
O=c1oc2ccc(Br)cc2cc1-c1cc(-c2cccc(Br)c2)nc(NCN2CCCCC2)n1,39.16%,41.97%,37.7%,
O=c1oc2ccc(Br)cc2cc1-c1cc(-c2ccc(Br)cc2)nc(NCN2CCCCC2)n1,32.47%,49.74%,41.88%,
COc1ccccc1-c1cc(-c2cc3cc(Br)ccc3oc2=O)nc(NCN2CCCCC2)n1,33.5%,77.72%,65.44%,
COc1cccc(-c2cc(-c3cc4cc(Br)ccc4oc3=O)nc(NCN3CCCCC3)n2)c1,35.05%,74.09%,63.87%,
O=c1oc2ccc(Br)cc2cc1-c1cc(-c2ccc(Cl)cc2Cl)nc(NCN2CCCCC2)n1,38.14%,83.94%,69.12%,
O=c1oc2ccc(Br)cc2cc1-c1cc(-c2c(Cl)cccc2Cl)nc(NCN2CCCCC2)n1,15.47%,26.43%,18.32%,
O=c1oc2ccc(Br)cc2cc1-c1cc(-c2ccccc2Cl)nc(NCN2CCOCC2)n1,64.43%,97.93%,87.97%,
O=c1oc2ccc(Br)cc2cc1-c1cc(-c2cccc(Cl)c2)nc(NCN2CCOCC2)n1,40.71%,69.95%,62.3%,
O=c1oc2ccc(Br)cc2cc1-c1cc(-c2ccc(Cl)cc2)nc(NCN2CCOCC2)n1,55.68%,98.45%,89.54%,
O=c1oc2ccc(Br)cc2cc1-c1cc(-c2ccccc2Br)nc(NCN2CCOCC2)n1,47.94%,59.59%,50.27%,
O=c1oc2ccc(Br)cc2cc1-c1cc(-c2cccc(Br)c2)nc(NCN2CCOCC2)n1,47.42%,52.33%,45.55%,
O=c1oc2ccc(Br)cc2cc1-c1cc(-c2ccc(Br)cc2)nc(NCN2CCOCC2)n1,46.89%,61.66%,51.3%,
O=c1oc2ccc(Br)cc2cc1-c1cc(-c2ccccc2Cl)nc(NCN2CCCCC2)n1,52.06%,89.64%,84.83%,
O=C([O-])Cc1ccccc1Nc1c(Cl)cccc1Cl.[Na+] [DICLOFENAC SODIUM],84.53%,95.87%,94.25%,
